Measurements as given in patent US20140243401A1, “METHODS OF SCREENING COMPOUNDS THAT ARE CYTOTOXIC TO TUMOR CELLS AND METHODS OF TREATING TUMOR CELLS USING SUCH COMPOUND” (The Johns Hopkins University, priority 2010, published 2014).
Converted amounts (≈) assume the structure as drawn.

Columns and labels:
[1] = system: SKOV3 human ovarian cancer cells; experiment: JC-1 staining, mitochondrial membrane potential in SKOV3 cells; format: cell-based; details: SKOV3, drug in DMSO applied 30 min prior to staining
Description: JC-1 staining is an indicator of mitochondrial membrane potential; with this assay, mitochondria within cells stained with this fluorescent dye emit a wavelength in the red spectrum when mitochondrial membrane potential is intact. When mitochondria are depolarized, the wavelength of the spectrum emitted changes to green. Therefore, the ratio of red/green fluorescence will give an indication of the intactness of the membrane potential of mitochondria, and thus mitochondrial function.
The left panels show granular red-staining indicating mitochondria with intact membrane potential is brightest in control, and decreases with increasing concentrations of C31. Conversely, the right panels show the diffuse cytoplasmic green-staining which indicates mitochondrial depolarization, is dimmest in control and brightest at the highest concentration of C31 tested. Drug was solubilized in DMSO and applied for 30 min prior to staining.

[2] = system: HCT116 human colon cancer xenograft; experiment: tumor xenograft size, HCT116; format: in vivo, Athymic Nude mice; details: Study 101707, HCT-116, oral b.i.d. 16 days
Description: Xenograft studies were performed using various mmFAS inhibitors disclosed herein. Human cancer xenograft studies are known in the art. (See Pizer et al., Cancer Res. 56:1189-1193, 1996; Pizer et al., Cancer Res. 60: 213-218, 2000; Testa et al., Oncogene 24: 7455-7464, 2005).
In particular, C31 mouse efficacy studies were conducted in order to evaluate anti-neoplastic activity of C31 in vivo. Athymic Nude mice were implanted with HCT116 human colon, SKOV3 human ovarian or OVCAR3 human ovarian cancer cell lines and were treated when the grown tumor xenografts reached at least 150 to 200 mm^3.^1 ^1 Compounds were solubilized in TEP (80% polyethylene glycol (PEG) 400, 10% ethanol, 10% tween-80) in a volume of 50 μL.

[3] = system: Human colon cancer (HCT116); experiment: XTT cytotoxicity assay, HCT116; format: cell-based; details: for IC50: HCT-116; for CC50: HCT-116, read-out: LC50 (the source's name)
[4] = system: Human ovarian cancer (OVCAR); experiment: XTT cytotoxicity assay, OVCAR; format: cell-based; details: for CC50: read-out: LC50 (the source's name)
Description: (See, e.g., Rothman, S., J Clin. Pathol. 39: 672-676, 1986). For example, to measure the cytotoxicity of a test compound against cancer cells, cells (e.g., SKOV-3 cells or OVCAR-3) are plated in 96-well plates. Following overnight culture, the compound is added to the cells at specified concentrations. After 72 hours of incubation, cells are incubated for 4 hours with the XTT reagent as per manufacturer's instructions (Cell Proliferation Kit II (XTT) Roche Diagnostics, New Jersey), and the amount of color produced by viable cells is measured spectrophotometrically. […] is calculated by linear regression, plotting the color produced in treated cells as percent of control (untreated) cells versus drug concentrations.
(§1) Cytotoxicity can be easily measured using XTT assays, which provide an indication of mitochondrial activity. The XTT assay is a non-radioactive alternative for the [^51Cr] release cytotoxicity assay. XTT is a tetrazolium salt that is reduced to a formazan dye only by metabolically active, viable cells. The reduction of XTT is measured spectrophotometrically as OD490-OD650. Thus, cells that are actively metabolizing will form reaction product when subjected to XTT measurement.
(§2) For this experiment, cells were cultured under standard culture conditions. MCF7 human breast cancer cells were cultured in DMEM containing 5 mM glucose medium with 10% fetal calf serum, 0.01 mg/ml insulin and 1% penicillin/streptomycin. To measure the cytotoxicity of specific compounds against cancer cells, 9×10^3 MCF7 cells were plated per well in 96-well plates. Following overnight culture, the compounds, dissolved in DMSO, were added to the wells in 1 μl volume at specified concentrations. Vehicle controls were run for each experiment. Each condition was run in triplicate. After 24 to 72 h of incubation, cells were incubated for 4 hours with the XTT reagent as per manufacturer's instructions (Cell Proliferation Kit II (XTT) Roche Diagnostics, New Jersey). Plates were read at OD490 on a PerkinElmer Victor 1420. Three wells containing the XTT reagent without cells served as the plate blank. XTT data were reported as OD490.

[5] = system: MCF7 human breast cancer cells; experiment: XTT cytotoxicity assay, MCF7; format: cell-based; details: Homo sapiens, MCF7, XTT, MCF-7; for CC50: read-out: LC50 (the source's name)
Description: as §1, §2
MCF7 human breast cancer cells were cultured in DMEM containing 1 mM or 5 mM glucose in the medium with 10% fetal calf serum, 0.01 mg/ml insulin and 1% penicillin/streptomycin. The cells were grown in two oxygen conditions, normoxia (21% 02) or hypoxia (1% 02). To measure the cytotoxicity of specific compounds against cancer cells, 9×10^3 MCF7 cells were plated per well in 96-well plates. Following overnight culture, the compounds, dissolved in DMSO, were added to the wells in 1 μl volume at specified concentrations. After 24 to 72 h of incubation, cells were incubated for 4 h with the XTT reagent as per manufacturer's instructions (Cell Proliferation Kit II (XTT) Roche Diagnostics, New Jersey). Plates were read at OD490 on a PerkinElmer Victor 1420. Three wells containing the XTT reagent without cells served as the plate blank. XTT data were reported as OD490Vehicle controls were run for each experiment. Each condition was run in triplicate.

MCF7 cells = experiment: 14C-acetate incorporation into lipids in MCF7 cells; format: cell-based, human; details: Homo sapiens; MCF7 cells, second experiment
Description: (§3) MCF7 human breast cancer cells (a cell line which overexpresses FAS) were cultured in DMEM containing 5 mM glucose medium with 10% fetal calf serum, 0.01 mg/ml insulin and 1% penicillin/streptomycin. For measurement of fatty acid synthesis cells were cultured in 24-well plates at 5×10^4 per well and incubated overnight. Fatty acid synthesis was assayed by a 2 h pulse of [U^14C]acetate, 1 μCi/well, followed by Folch extraction and scintillation counting. Test compounds were added with the addition of drugs as described. Controls were treated with DMSO alone.
as §3, with “cells” for “cells (a cell line which overexpresses FAS)”, “containing 1 mM or” for “containing”, “glucose in the” for “glucose”, “penicillin/streptomycin. The cells were grown in two oxygen conditions, normoxia (21% 02) or hypoxia (1% 02).” for “penicillin/streptomycin.”, “counting” for “counting. Test compounds were added”

mitochondrial FAS = experiment: 14C-malonate incorporation into mitochondrial fatty acids, mitochondria isolated from rat liver; format: biochemical; details: FIG. 3
Description: Mammalian mitochondrial FAS activity may be determined in a variety of ways. For example, [14C]malonate may be added to isolated mitochondria, fatty acids are extracted, and then radioactivity is tested. (See Zhang et al., J. Bio. Chem. 278(41): 40067-40074, 2003; Mikolajczyk, J. and Brody, S., Eur. J. Biochem. 187: 431-437, 1990). The mitochondria are purified using methods known in the art. (See Qiagen's Qproteome Mitochondria Isolation Kit; Methods in Enzymology, Vol. 10, Chapter 11, 1967). To test the inhibition of mmFAS activity, a test compound is added to the reaction mixture. Therefore, a test compound may be screened according the methods described herein as follows: (i) isolating mitochondria; (ii) incubating mitochondria with [14C]malonate with and without a test compound; and (iii) determining the quantity of lipids and/or fatty acids produced. By comparing the amount of product in the presence of the test compound to the amount in its absence, the degree of inhibition can be determined.
Mitochondria from MCF7 cells were prepared following manufacturer's protocol (Mitochondria Isolation Kit, Sigma, Saint Louis, Mo.). Rat liver mitochondria were isolated by homogenization with a tissue homogenizer in H-medium (220 mM mannitol, 70 mM sucrose, 2 mM HEPES, and 0.5 g/L of fatty acid free bovine serum albumin, pH 7.4). The homogenate was centrifuged at 1100 g for 3 min and washed twice with H-medium. The supernatants were pooled and centrifuged at 6800 g for 15 min. The pellet was then rinsed again and centrifuged at 3000 g for 3 min. The mitochondria supernatants were saved. The sediments were resuspended in H-medium and centrifuged at 3000 g for 3 min. The mitochondria supernatants were combined and centrifuged at 20,000 g for 15 min. The resulting mitochondria pellet were rinsed and centrifuged again at 20,000 g for 20 min.
Isolated mitochondria (100-200 μg) were mixed with 50 mM TES-KOH (pH 7.2), 10 mM MgCl2, 0.3 M sorbitol, 0.1% BSA, 1 mM each of ATP, ADP, NADH, NADPH, CoA, DTT and 1 μCi of [2-^14C]malonic acid (50 mCi/mmol) in a total volume of 200 μl. The reaction was performed for 30 min at room temperature. C31, Riv7d or vehicle were added at the beginning of this reaction. At the end of 30 minutes, the mitochondria pellet was separated from supernatant by centrifugation at 14000 rpm for 5 min. After washing with 500 μl of 50 mM TES-KOH (pH 7.2) and 0.3 M sorbitol, the mitochondria were incubated in 200 μl of H2O and 20 μl of 10 M KOH for 15 min at 65° C. Then the samples were added with 40 μl of 5 M H2SO4 and 20 μl of 1 mM palmitic acid (in 1 M acetic acid in isopropanol). The ^14C labeled fatty acids were twice extracted with hexane and sent to scintillation counting after drying.

| Compound | mitochondrial depolarization (JC-1 staining) [1] | Average Tumor Size Endpoint (% Change) ([2]; 53 mg/kg) | IC50 [3] | CC50 [3] | IC50 [4] | CC50 [4] | IC50 [5] | CC50 [5] | IC50 (MCF7 cells) | Average Tumor Size Endpoint (% Change) ([2]; 55 mg/kg) | IC50, inhibition of mitochondrial FAS (14C-malonate incorporation) (mitochondrial FAS; isolated mitochondria) | effect on 14C-malonate incorporation into mitochondrial fatty acids (mitochondrial FAS; mitochondria isolated from rat liver) |
| --- | --- | --- | --- | --- | --- | --- | --- | --- | --- | --- | --- | --- |
| CCCCCCCCC1(C)SC(=O)C=C1OCC(=O)Nc1ccc(C(F)(F)F)cc1 (centres unmarked) [Compound C144] | depolarization of the mitochondria in the SKOV3 human ovarian cancer cells which is dose-dependent | −91 % Change | 4.8 µg/mL (≈ 10.8 µM) | 10.8 µM | 4 µg/mL (≈ 9.02 µM) | 9 µM | 2.2 µg/mL (≈ 4.96 µM) | 4.9 µM | > 5.6 µM | – | – | – |
| CCCCCCCCC1(C)SC(=O)C=C1OCC(=O)Nc1ccc(OC(F)(F)F)cc1 (centres unmarked) [Compound C145] | depolarization of the mitochondria in the SKOV3 human ovarian cancer cells which is dose-dependent | – | 3.5 µg/mL (≈ 7.62 µM) | 7.6 µM | 3.3 µg/mL (≈ 7.18 µM) | 7.2 µM | 1.8 µg/mL (≈ 3.92 µM) | 3.9 µM | 17.8 µM | +236 % Change | – | – |
| Oc1cc(Cl)ccc1Oc1ccc(Cl)cc1Cl [Triclosan, triclosan, reference compound] | – | – | – | – | – | – | – | – | – | – | 3 μg per mL | inhibitory effect |
